One compound from publication PMC12030062, “From In Vitro Cytotoxicity to In Vivo Zebrafish Assays: A Study on 3,3-Dichloro β-, γ- and δ-Lactams and Their Biological Activity Profiles” (Pharmaceuticals, 2025) can be followed below.

The subject of data set [1] is A431 cell line (squamous cell carcinoma). Description: Cell viability, MTT assay, A431. The class given is cell-based. On the procedure:
(§1) Two different endpoints, 3-(4,5-dimethyl-2-thiazolyl)-2,5-diphenyltetrazolium bromide (MTT) and neutral red uptake (NRU), were used to assess differences in cell-induced cytotoxicity. […] In addition, NRU evaluates the interaction of these drugs with the plasmatic membrane. Cell responses were determined from the MTT [16] and NRU [17] assays, using the two proposed cell lines. Cytotoxicity assays were performed at concentrations equal to 80 and 250 µg/mL. The IC50 value, referring to the half-maximal inhibitory concentration, was determined as a key parameter in cytotoxicity studies (Table 1). It plays a crucial role in evaluating cell viability and assessing cellular responses to various drugs or toxins. For cases where IC50 values were below 80 µg/mL, additional studies at lower concentrations were conducted to accurately determine these values. […] The selectivity index (SI), used as a measurement of action against the tumor cell line in comparison with a normal cell line, was also included.
(§2) • In Vitro Assay Using Human Erythrocytes • - Acquisition and Extraction of the Erythrocytes Human blood samples were obtained from the Banc de Sang i Teixits de Barcelona (Spain) from the Catalan Department of Health. Blood was deposited in tubes with the anticoagulant EDTA-K3. Blood samples were centrifuged at 3000 rpm and 4 °C for 10 min (Megafuge 2.0 R. Heraeus Instruments, Hanau, Germany) to induce sedimentation. Plasma was extracted with a Pasteur pipette. Next, the residual pellet was washed with PBS at pH 7.4. This procedure was repeated three times to remove residual leukocytes and platelets and to concentrate the erythrocytes. Following the last wash, the erythrocyte suspension was diluted (1:1) in PBS at pH 7.4 to obtain a suitable erythrocyte suspension (cell density of 8 × 10^9 cell/mL). • - Hemolysis Assay The hemolysis assay determined the capability of different compounds to induce the hemolysis of the erythrocyte membrane. Stock solutions of each compound at 1 mg/mL in PBS at pH 7.4 were prepared. Different volumes (10–80 μL) were placed in polystyrene tubes, and an aliquot of 25 µL of the erythrocyte suspensions was added to each tube. The final volume was 1 mL. The tubes were incubated at room temperature under rotatory conditions. Then, the tubes were centrifuged at 10,000 rpm for 5 min. The supernatants’ absorbance at 540 nm (Shimadzu UV-160A, Shimadzu, Duisburg, Germany) was compared with that of the positive (erythrocytes hemolyzed with distilled water) and negative (erythrocyte suspension in PBS at pH 7.4) controls. The degree of hemolysis was determined using the following equation: Hemolysis (%) = 100 × (Abs − Abs0)/(Abs100 − Abs0) where Abs, Abs0, and Abs100 are the absorbance of the test samples, of the suspension treated with isotonic phosphate–buffered saline (PBS), and of the suspension of complete hemolysis treated with distilled water, respectively. • In Vitro Essay Using Cell Cultures The murine Swiss albino fibroblasts (3T3) and the squamous cell carcinoma (A431) cell lines were obtained from Celltec UB. Cells were grown in DMEM medium (4.5 g/L glucose) supplemented with 10% (v/v) FBS, 2 mM L-glutamine, 100 U/mL penicillin, and 100 µg/mL streptomycin at 37 °C with 5% CO2. Cells were routinely cultured in 75 cm^2 culture flasks and were trypsinized using trypsin–EDTA when the cells reached approximately 80% confluence. The trypan blue assay, which allows for the direct identification and enumeration of the live (unstained) and dead (blue) cells in the cell population, was used to evaluate the viability of the cells in the cell suspension obtained. • - Cell Viability Assays Cell lines of 3T3 (1 × 10^5 cells/mL) and A431 (5 × 10^4 cells/mL) were grown at defined densities in the 60 central wells of a 96-well plate. The cells were incubated for 24 h in 5% CO2 at 37 °C. […]
A general note: Tetrazolium dyes change colour on reduction, which living cells bring about.

Data set [2] has as its system murine Swiss albino fibroblast (3T3) cell line. Put plainly: Cell viability, NRU assay, 3T3. The class given is cell-based. The settings on record: Mus musculus, 24 h incubation, NRU endpoint. The method, then: as §1, §2

Converted amounts (≈) assume the structure as drawn. Where only a bound is given, the exact number is not on record here.

`CC(C)(C)N1C(=O)C(Cl)(Cl)C1c1ccccc1` (centres unmarked) [Compound 1]: the “IC50 (MTT) A431” value in data set [1] (24 h incubation, MTT endpoint, A431) is 71.65 ± 1.23 µg/mL (≈ 263 µM). Further, the IC50 in data set [1] (Homo sapiens, A-431, 24 h, 24 h incubation, MTT endpoint, A431, read-out: IC50 (MTT) A431) is 71 µg/mL (≈ 261 µM); in data set [2], more than 250 µg/mL. Moreover, the “SI (MTT), selectivity index” value in data set [1] (SI = IC50 (3T3)/IC50 (A431), MTT) worked out at 2.94. Also, the “selective cytotoxicity, A431 in comparison with 3T3 cells” value in data set [1] (lower IC50 for A431 than 3T3) was “some selective cytotoxicity”.

A word on the IC50: it is the concentration at which inhibition is half-maximal.
